From patent US20260363244A1, “HERBICIDAL COMPOSITIONS COMPRISING URACILS” (BASF SE, priority 2022, published 2026)
Read-outs that look alike come from different tables or passages of the source.

Experiments:
Format in all cases: in vivo
Echinocloa crus-galli = experiment: greenhouse post-emergence herbicidal activity, ECHCG; details: Echinochloa crus-galli, post-emergence, read-out: % activity (solo application)
Experimental: (§1) The following examples serve to illustrate the invention.
(§2) The culture containers used were plastic pots containing loamy sand with approximately 3.0% of humus as substrate. The seeds of the test plants were sown separately for each species.
(§3) For the post-emergence treatment, the test plants were grown to a plant height of from 3 to 15 cm, depending on the plant habit, and only then treated with the active compounds which had been suspended or emulsified in water. To this end, the test plants were either sown directly, and grown in the same containers, or they were first grown separately as seedlings and transplanted into the test containers a few days prior to treatment.
(§4) Depending on the species, the plants were kept at 10-25 °C and 20-35 °C, respectively. The test period extended over 2 to 4 weeks. During this time, the plants were tended and their response to the individual treatments was evaluated.
(§5) Evaluation was carried out using a scale from 0 to 100. 100 means no emergence of the plants, or complete destruction of at least the above-ground parts, and 0 means no damage or normal course of growth. A good herbicidal activity is given at values of at least 70, and very good herbicidal activity is given at values of at least 85.
(§6) The respective stated components A and B, and if appropriate, C were formulated as a 5% by weight strength emulsion concentrate and, with addition of the amount of solvent system, introduced into the spray liquor used for applying the active compound. In the examples, the solvent used was water.
(§7) In the examples below, using the method of S. R. Colby (1967) “Calculating synergistic and antagonistic responses of herbicide combinations”, Weeds 15, p. 22ff., the value E, which is expected if the activity of the individual active compounds is only additive, was calculated.
(§8) E=X+Y−(X·Y/100) • where • X=percent activity using active compound A at an application rate a; • Y=percent activity using active compound B at an application rate b; • E=expected activity (in %) by A+B at application rates a+b.
(§9) The plants used in the greenhouse experiments were of the following species
(§10) In this context, a.i. means active ingredient, based on 100% active ingredient.
(§11) As indicated the application was post emergent (POST) at the respective growth stage (GS) of the weed.
(§12) Assessment was at the indicated days after treatment (DAT).

Lolium multiflorum = experiment: greenhouse post-emergence herbicidal activity, LOLMU; details: Lolium multiflorum, post-emergence, read-out: % activity (solo application); for activity at […]: 1.6 gai/ha
Experimental: as §1, §2, §3, §4, §5, §6, §7, §8, §9, §10, §11, §12

Brachiaria decumbens = experiment: greenhouse post-emergence herbicidal activity, BRADC; details: Urochloa decumbens, post-emergence, 1.6 gai/ha, read-out: % activity (solo application)
Experimental: as §1, §2, §3, §4, §5, §6, §7, §8, §9, §10, §11, §12

Setaria faberi = experiment: greenhouse post-emergence herbicidal activity, SETFA; details: for % activity (solo application) / activity at 0.5 g/ha: 0.5 gai/ha; for activity at […]: 0.25 gai/ha
Experimental: as §1, §2, §3, §4, §5, §6, §7, §8, §9, §10, §11, §12

Abutilon theophrasti = experiment: greenhouse post-emergence herbicidal activity, ABUTH; details: read-out: % activity (solo application); for activity at 0.5 g/ha: 0.5 gai/ha; for activity at 0.4 g/ha: 0.4 gai/ha; for activity at 0.8 g/ha: 0.8 gai/ha
Experimental: as §1, §2, §3, §4, §5, §6, §7, §8, §9, §10, §11, §12

Amaranthus tamariscinus = experiment: greenhouse post-emergence herbicidal activity, AMATA; details: read-out: % activity (solo application); for activity at 0.5 g/ha: 0.5 gai/ha; for activity at 0.2 g/ha: 0.2 gai/ha
Experimental: as §1, §2, §3, §4, §5, §6, §7, §8, §9, §10, §11, §12

Digitaria sanguinales = experiment: greenhouse post-emergence herbicidal activity, DIGSA; details: Digitaria, post-emergence, read-out: % activity (solo application)
Experimental: as §1, §2, §3, §4, §5, §6, §7, §8, §9, §10, §11, §12

[1] = 168 h, GS 11-33, 7 DAT, 1.6 gai/ha
[2] = 480 h, GS 11-33, 20 DAT, 1.6 gai/ha
[3] = 480 h, GS 11-33, 20 DAT, 0.2 gai/ha
[4] = Setaria faberi, post-emergence, 144 h, GS 12-16, 6 DAT, read-out: % activity (solo application)
[5] = Setaria faberi, post-emergence, 480 h, GS 12-16, 20 DAT, read-out: % activity (solo application)

In the case of CCOC(=O)COc1ccccc1Oc1nc(-n2c(=O)cc(C(F)(F)F)n(C)c2=O)c(F)cc1Cl [(I.3)], the activity at […] (Echinocloa crus-galli; 144 h, GS 12-16, 6 DAT, 0.25 gai/ha) is reported as 40%, the activity at 0.5 g/ha (Echinocloa crus-galli; 144 h, GS 12-16, 6 DAT, 0.5 gai/ha) is reported as 55% and the activity at […] (Echinocloa crus-galli; [1]) is reported as 60%. It also gave an activity at […] (Echinocloa crus-galli; [2]) of 60%, an activity at […] (Lolium multiflorum; 168 h, GS 11-33, 7 DAT) of 30% and an activity at 0.2 g/ha (Lolium multiflorum; [3]) of 5%. For the same compound, the activity at 0.8 g/ha (Lolium multiflorum; 480 h, GS 11-33, 20 DAT, 0.8 gai/ha) was 10%, the activity at […] (Lolium multiflorum; 480 h, GS 11-33, 20 DAT) was 10% and the activity at […] (Brachiaria decumbens; 192 h, GS 11-33, 8 DAT) was 50%. For the same compound, the activity at […] (Brachiaria decumbens; 480 h, GS 11-33, 20 DAT) was 40%, the “% activity (solo application)” value (Setaria faberi; GS 12-16, 6 DAT) was 60% and the “% activity (solo application)” value (Setaria faberi; GS 12-16, 20 DAT) was 60%. It also gave an activity at […] (Setaria faberi; [4]) of 55%, an activity at 0.5 g/ha (Setaria faberi; [4]) of 65% and an activity at 0.5 g/ha (Setaria faberi; Setaria faberi, post-emergence, 168 h, GS 12-16, 7 DAT, read-out: % activity (solo application)) of 75%. It also gave an activity at 0.2 g/ha (Setaria faberi; Setaria faberi, post-emergence, 480 h, GS 11-33, 20 DAT, 0.2 gai/ha, read-out: % activity (solo application)) of 15%, an activity at 0.4 g/ha (Setaria faberi; Setaria faberi, post-emergence, 480 h, GS 11-33, 20 DAT, 0.4 gai/ha, read-out: % activity (solo application)) of 80% and an activity at […] (Setaria faberi; [5]) of 55%. It also gave an activity at 0.5 g/ha (Setaria faberi; [5]) of 55%, an activity at 0.5 g/ha (Setaria faberi; Setaria faberi, post-emergence, 504 h, GS 12-16, 21 DAT, read-out: % activity (solo application)) of 70% and an activity at 0.5 g/ha (Abutilon theophrasti; 144 h, GS 12-16, 6 DAT) of 95%. It also gave an activity at 0.2 g/ha (Abutilon theophrasti; 168 h, GS 11-33, 7 DAT, 0.2 gai/ha) of 80%, an activity at 0.4 g/ha (Abutilon theophrasti; 168 h, GS 11-33, 7 DAT) of 85% and an activity at 0.8 g/ha (Abutilon theophrasti; 168 h, GS 11-33, 7 DAT) of 85%. The activity at […] (Abutilon theophrasti; [1]) was 90%, the activity at […] (Abutilon theophrasti; 168 h, GS 12-16, 7 DAT, 0.25 gai/ha) was 85% and the activity at 0.5 g/ha (Abutilon theophrasti; 168 h, GS 12-16, 7 DAT) was 90%. The activity at 0.4 g/ha (Abutilon theophrasti; 480 h, GS 11-33, 20 DAT) was 80%, the activity at 0.8 g/ha (Abutilon theophrasti; 480 h, GS 11-33, 20 DAT) was 80% and the activity at […] (Abutilon theophrasti; [2]) was 90%. It also gave an activity at […] (Abutilon theophrasti; 504 h, GS 12-16, 21 DAT, 0.25 gai/ha) of 85%, an activity at 0.5 g/ha (Amaranthus tamariscinus; 144 h, GS 12-16, 6 DAT) of 90% and an activity at 0.2 g/ha (Amaranthus tamariscinus; 168 h, GS 11-33, 7 DAT) of 70%. It also gave an activity at 0.2 g/ha (Amaranthus tamariscinus; 480 h, GS 11-33, 20 DAT) of 40%, an activity at […] (Amaranthus tamariscinus; [2]) of 90% and an activity at […] (Amaranthus tamariscinus; 480 h, GS 12-16, 20 DAT, 0.25 gai/ha) of 70%. It also gave an activity at 0.5 g/ha (Amaranthus tamariscinus; 480 h, GS 12-16, 20 DAT) of 85%, an activity at 0.4 g/ha (Digitaria sanguinales; 192 h, GS 11-33, 8 DAT, 0.4 gai/ha) of 30% and an activity at 0.2 g/ha (Digitaria sanguinales; [3]) of 10%. For the same compound, the activity at 0.5 g/ha (Digitaria sanguinales; 480 h, GS 12-16, 20 DAT, 0.5 gai/ha) was 35%.
